Laboratory results published in PubChem BioAssay (NCI).
“And” between values parts separate entries of the source, which are not always exact repeats. Equal values may be shown once.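 1) Cells in 96-well plates. 2) Compound, 48 h, 5 concentrations. 3) Linear interpolation between surrounding doses. 4) Unreached endpoint = highest concentration. Here, GI50 denotes the concentration required for 50% inhibition of growth. Definition used: TGI = concentration required for complete inhibition of growth.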

Assays:
Assay in all cases: growth of human tumour cells (NCI), 48 h
A549 NSCLC = system: A549 NSCLC
HCT-116 colon = system: HCT-116 colon
EKVX NSCLC = system: EKVX NSCLC
NCI/ADR-RES ovarian = system: NCI/ADR-RES ovarian
LOX IMVI melanoma = system: LOX IMVI melanoma
MCF7 breast = system: MCF7 breast
RPMI-8226 leukemia = system: RPMI-8226 leukemia
MOLT-4 leukemia = system: MOLT-4 leukemia
HT29 colon = system: HT29 colon
HCC-2998 colon = system: HCC-2998 colon

Structure (SMILES)	GI50 (A549 NSCLC)	TGI (A549 NSCLC)	GI50 (HCT-116 colon)	TGI (HCT-116 colon)	GI50 (EKVX NSCLC)	TGI (EKVX NSCLC)	GI50 (NCI/ADR-RES ovarian)	TGI (NCI/ADR-RES ovarian)	GI50 (LOX IMVI melanoma)	TGI (LOX IMVI melanoma)	GI50 (MCF7 breast)	TGI (MCF7 breast)	GI50 (RPMI-8226 leukemia)	TGI (RPMI-8226 leukemia)	GI50 (MOLT-4 leukemia)	TGI (MOLT-4 leukemia)	GI50 (HT29 colon)	TGI (HT29 colon)	GI50 (HCC-2998 colon)	TGI (HCC-2998 colon) [µM]
CCCCNC(=O)Oc1ccc(/C(=C(/C)Cc2ccc(OC)cc2)c2ccc(OCCN3CCCC3)cc2)cc1	1.95 µM	3.8 µM	1550 nM	2.98 µM	1.86 µM	5.5 µM	3.11 µM	11.6 µM	1670 nM	3.2 µM	655 nM	2.51 µM	2200 nM	4.85 µM	1.98 µM	7.72 µM	1.89 µM	3.85 µM	1830 nM	3.48
Cc1cc(N2CCCC2)nc(NCc2cc(Nc3ccnc4cc(Cl)ccc34)ccc2F)n1	1.71 µM	3.47 µM	198 nM	0.557 µM			1.39 µM	2.99 µM	1120 nM	2.48 µM	216 nM	1.07 µM	404 nM	5.04 µM			0.286 µM	1.23 µM	1130 nM	2.45
CN(C)CC(C(=O)Cc1ccccc1)c1ccccc1 (stereo unspecified)	16.7 µM	35.5 µM	1720 nM	3.3 µM	17 µM	40.5 µM	4.4 µM	23.9 µM	1390 nM	3.04 µM	369 nM	1.67 µM	444 nM	3.17 µM	3.02 µM	> 100 µM			15900 nM	30.3
CCCCc1n(Cc2ccc3ccccc3c2)cc[n+]1Cc1ccc2ccccc2c1			663 nM	2.08 µM			15.8 µM	39.8 µM							1.39 µM	3.4 µM				
CN1CCN(c2nc(NCCCNc3ccnc4cc(Cl)ccc34)c3ccccc3n2)CC1	5.01 µM	19.2 µM	3300 nM	12.1 µM	11.4 µM	25.3 µM	22 µM	59.1 µM	1960 nM	4.2 µM	2370 nM	13.2 µM	1800 nM	7.69 µM	3.25 µM	15.2 µM	3.33 µM	9.87 µM	3000 nM	12.5
Cc1ccc(C(SCC(N)C(=O)O)(c2ccccc2)c2ccccc2)cc1 (stereo unspecified)	0.153 µM	> 100 µM	38.4 nM	13 µM	0.21 µM	> 100 µM	1.03 µM	6.03 µM	247 nM	21.6 µM	32.4 nM	> 79.1 µM	38.5 nM	> 100 µM	0.244 µM	> 100 µM	0.365 µM	> 100 µM	246 nM	15.2
C=C(CC(=O)O)C(=O)O (tested in a mixture with another compound)	> 50 µg/mL	> 50 µg/mL	> 50 µg/mL	> 50 µg/mL	40.6 µg/mL	> 50 µg/mL	> 50 µg/mL	> 50 µg/mL	> 50 µg/mL	> 50 µg/mL	> 50 µg/mL	> 50 µg/mL	> 50 µg/mL	> 50 µg/mL	> 50 µg/mL	> 50 µg/mL	> 50 µg/mL	> 50 µg/mL		
COc1cc(-c2cc(/C=C/C(=O)c3ccc(Cl)c(Cl)c3)[nH]n2)cc(OC)c1OC	18.7 µM	> 100 µM	2950 nM	21.5 µM			10.6 µM	> 100 µM	3390 nM	16.4 µM	1800 nM	> 100 µM	538 nM	6.73 µM	4.38 µM	40.6 µM	11.5 µM	> 100 µM	9560 nM	31.4
CC(C)CC(Nc1c(O)ccc2ccccc12)C(=O)O (stereo unspecified)		> 100 µM		> 100 µM		58.3 µM		> 100 µM		> 100 µM		> 100 µM		> 100 µM		> 100 µM		> 100 µM		> 100
C/C(=N\NC(=S)N1CC2CCC(CC2)C1)c1cccc(C)n1	0.248 µM	12.9 µM		2.78 µM	0.326 µM	4.63 µM	< 0.0001 µM		179 nM	8.16 µM			160 nM	17.1 µM	< 0.0001 µM	0.00764 µM	< 0.0001 µM	11.4 µM		19.1
Cc1[nH]c(-c2nc3ccccc3[nH]2)c(C)c1C(=O)NC(C)C1CCCCC1 (stereo unspecified)	12.2 µM	34 µM	10100 nM	24.2 µM	11.4 µM	23.7 µM	10.2 µM	28 µM	10000 nM	29.7 µM	4010 nM	19.2 µM	4350 nM	17.7 µM	4.95 µM	28.1 µM	4.89 µM	38.2 µM	13600 nM	34.6
Cc1ccc(C2=C(c3ccccc3)C(c3ccccc3)Oc3ccc(C)cc32)cc1 (stereo unspecified)	3.87 µM	10.7 µM	1680 nM	3.43 µM	3.2 µM	12.8 µM	2.18 µM	5.35 µM	13800 nM	32 µM	3330 nM	13.1 µM	6970 nM	41.3 µM	8.86 µM	31.5 µM			1640 nM	3.1
NC(N)=Nc1nc2ccc([N+](=O)[O-])cc2[nH]1		> 100 µM		> 100 µM		> 100 µM		> 100 µM		> 100 µM		> 100 µM		> 100 µM		> 100 µM		> 100 µM		
Cc1[nH]nc2c1N=C(c1ccccc1F)c1cc(C(N)=O)ccc1N2	7.56 µM	> 25 µM	1020 nM	> 25 µM			> 25 µM	> 25 µM	2040 nM	13.2 µM	592 nM	> 20 µM	> 25000 nM	> 25 µM	6.63 µM	22 µM	4.92 µM	> 25 µM	8510 nM	> 25
CCCCN(CCCC)CCC(O)c1cc2c(Cl)cc(Cl)cc2c2cc(C(F)(F)F)ccc12 (stereo unspecified)				25.2 µM		29.1 µM		26.1 µM		21.9 µM		24.9 µM		28.4 µM		29.3 µM		34.9 µM		24.2
COc1ccc2c(Cl)cc(NC(=O)Nc3c(C)cccc3C)nc2c1	6.1 µM	69.4 µM	5720 nM	> 100 µM			> 100 µM	> 100 µM	17300 nM	> 100 µM	56000 nM	> 100 µM	> 100000 nM	> 100 µM	45.9 µM	> 100 µM	33.9 µM	> 100 µM	> 100000 nM	> 100

Structure (SMILES)	GI50 (A549 NSCLC)	TGI (A549 NSCLC)	GI50 (HCT-116 colon)	TGI (HCT-116 colon)	GI50 (EKVX NSCLC)	TGI (EKVX NSCLC)	GI50 (NCI/ADR-RES ovarian)	TGI (NCI/ADR-RES ovarian)	GI50 (LOX IMVI melanoma)	TGI (LOX IMVI melanoma)	GI50 (MCF7 breast)	TGI (MCF7 breast)	GI50 (RPMI-8226 leukemia)	TGI (RPMI-8226 leukemia)	GI50 (MOLT-4 leukemia)	TGI (MOLT-4 leukemia)	GI50 (HT29 colon)	TGI (HT29 colon)	GI50 (HCC-2998 colon)	TGI (HCC-2998 colon) [µM]
Cc1ccc(C2=Nc3c(N)ncnc3NC(c3ccc4c(c3)OCO4)C2)cc1 (stereo unspecified)	7.09 µM	52.9 µM			16.2 µM	> 100 µM	3.52 µM	22.9 µM	6380 nM	25 µM	3420 nM	> 100 µM			2.66 µM	> 100 µM	3.81 µM	33.9 µM	6300 nM	67.1
Oc1ccc(CCNCc2cc3c(cc2Br)OCO3)cc1		> 100 µM		> 100 µM		> 100 µM		> 100 µM		> 100 µM		> 100 µM		> 100 µM		> 100 µM		> 100 µM		
COc1cccc2c1C(=O)c1c(O)c3c(c(O)c1C2=O)C[C@@](O)(C(=O)CO)CC3OC1CC(O)C(O)C(C)O1 (stereo partly specified)		3.99 µM		0.572 µM		7.49 µM		12.5 µM		2.53 µM		21.6 µM						4.25 µM		2.08
C[C@]12CC[C@H]3[C@@H](C[C@@H]4SC(Nc5ccccc5)=N[C@@]45CC(O)CC[C@]35C)[C@@H]1CCC2O (stereo partly specified)	2.41 µM	6.02 µM	1510 nM	3.01 µM	2.75 µM	9.26 µM	3.39 µM	91.7 µM	1330 nM	2.77 µM	1800 nM	4.73 µM	465 nM	2.47 µM	1.87 µM	8.07 µM			1970 nM	3.56
NCCOc1ccccc1/C=C1\c2ccccc2-c2ccc([N+](=O)[O-])cc21			1250 nM	2.51 µM	1.55 µM	2.99 µM	1.77 µM	3.54 µM	1330 nM	2.66 µM	805 nM	2.25 µM	1790 nM	3.63 µM			1.42 µM	2.84 µM	1510 nM	3.09
Cc1cc(C(=O)NC(CCC(=O)O)C(=O)O)sc1CCC1CNc2nc(N)[nH]c(=O)c2C1 (stereo unspecified)	0.0437 µM and 0.156 µM	> 100 µM	< 19.8 nM and 35.7 nM	> 100 µM			0.0499 µM and 0.0758 µM	> 100 µM	29.4 nM and 36.5 nM	> 100 µM	< 11.4 nM and 34.6 nM	> 100 µM	150 nM and 229 nM	> 100 µM	0.0297 µM and 0.0453 µM	> 100 µM	< 0.0198 µM and 0.0322 µM	> 100 µM	67.7 nM and 323 nM	> 100
CCCNC(=O)c1ccc(Cl)cc1Cl	> 100 µM	> 100 µM	> 100000 nM	> 100 µM	> 100 µM	> 100 µM	> 100 µM	> 100 µM	> 100000 nM	> 100 µM	> 100000 nM	> 100 µM			> 100 µM	> 100 µM	> 100 µM	> 100 µM		
Cc1ccn2c(CCc3nnc4cc(C)ccn34)nnc2c1		> 100 µM		> 100 µM		> 100 µM		> 100 µM				> 100 µM		> 100 µM		> 100 µM		> 100 µM		
OCCNCCCOc1ccc2ncnc(Nc3ccc(Oc4cccc(C(F)(F)F)c4)c(Cl)c3)c2c1					1.24 µM	2.76 µM	2.65 µM	9.3 µM	1710 nM	3.15 µM			1510 nM	4.1 µM					1640 nM	3.1
CCN(CC)CCN(Cc1ccc(F)cc1)c1ccc(CO)c(Cl)c1	2.42 µM	12.8 µM	3550 nM	> 50.1 µM			9.64 µM	50.2 µM	21100 nM	52.5 µM	4550 nM	85.5 µM	23800 nM	75.3 µM	40.1 µM	> 100 µM	18.6 µM	69.4 µM	3090 nM	12.8
COc1ccc(/C=C2\CN(Cc3cn(CCNc4ccnc5cc(Cl)ccc45)nn3)C/C(=C\c3ccc(OC)c(OC)c3)C2=O)cc1OC	4.73 µM	40.4 µM	1950 nM	3.85 µM			> 100 µM	> 100 µM	2100 nM	4.82 µM	3300 nM	16 µM	3000 nM	39 µM	3.5 µM	40.2 µM	3.13 µM	8.82 µM	1960 nM	3.62
C[C@]1(Cn2ccnn2)C(C(=O)O)N2C(=O)CC2S1(=O)=O (stereo partly specified)	> 100 µM	> 100 µM	> 100000 nM	> 100 µM			> 100 µM	> 100 µM			> 100000 nM	> 100 µM	> 100000 nM	> 100 µM			> 100 µM	> 100 µM	> 100000 nM	> 100
CN[C@@H](C)[C@H](N)c1ccccc1		> 100 µM		> 100 µM		> 100 µM				> 100 µM				> 100 µM		> 100 µM		> 100 µM		> 100
CC(=O)C1=C(C)N(C)C2(O)C=CC(=O)C3=C(O)c4ccccc4C(=O)C312 (stereo unspecified)	23 µM	> 100 µM	2770 nM	7.09 µM	15.3 µM	33.4 µM	5.49 µM	> 100 µM			12200 nM	36.1 µM	3020 nM	31.5 µM	3.53 µM	> 100 µM	24.1 µM	> 100 µM	13800 nM	61.8
C=C1C2CC(OC(C)=O)C3(C)C(c4ccoc4)OC(=O)[C@@H](O)[C@]13OC1C[C@H](OC(C)=O)C(C)(C)[C@H](CC(=O)OC)[C@]12C (stereo partly specified)		> 100 µM		> 100 µM		> 100 µM				> 100 µM				> 100 µM		> 100 µM		> 100 µM		> 100
